What all share (assay type): biochemical
Experiment [1] deals with T1, SMARCA2 (Homo sapiens, UniProt P51531).
T1 construct: The SMARCA2-1 gene (amino acids 437-1493) encompassing all domains; made in house; host or cells: expiSF9 insect cells (baculovirus, pFASTBac1)
Kind of experiment: High-throughput screen (HTS) of 40,000 compounds, ATPase assay. To be noted: HTS against human SMARCA2. An excerpt:
The SMARCA2-1 gene (amino acids 437-1493) encompassing all domains (HAS, BRK, ATPase and Bromodomain) required for DNA binding and ATPase activity were cloned into a pFASTBac1 plasmid for insect cell expression (FIG. 2A). In brief, one positive colony was selected and grown to produce enough bacmid DNA. The purified bacmid DNA was used to transfect expiSF9 insect cells using ExpiFectamine protocol as recommended by the manufacturer (Invitrogen). The P0 virus was first generated from the transfected cells, which was subsequently used to generate a P1 virus stock to have enough virus for several rounds of infections and/or large-scale production of SMARCA2-1 enzyme. Next, the experimental conditions were optimized for highest expression of this enzyme and the cultures scaled up to express and purify the enzyme by successive passage of soluble fraction through affinity, ion-exchange, and size exclusion chromatography steps (FIG. 2B). Next, a 29-mer double stranded DNA termed as DNA_EEPD1 (sequence below) was used to measure ATPase activity of SMARCA2 (FIG. 2C and FIG. 2D) and its inhibition by the small molecules described herein (FIG. 4D).
(§1) In brief, the disclosed ATPase assay is based on the inorganic phosphate (Pi) release from the enzymatic reaction, wherein the substrate 2-amino-6-mercapto-7-methylpurine ribose (MESG) is converted by purine phosphorylase (PNP) to ribose 1-phosphate and 2-amino-6-mercapto-7-methylpurine. This conversion changes the spectrophotometric shift of MSEG absorbance from 330 nm to 360 nm (FIG. 1C and FIG. 1D).
Briefly, human SMARCA2 was purified, and a high-throughput screen (HTS) of 40,000 compounds was conducted. […] When cells reached 90% confluency, cells were harvested, washed twice in 1×PBS, counted using trypan blue exclusion method. […] Cells were monitored for 72 hrs. by live cell imaging method (Incucyte S3) taking images every two hours. The confluency was determined and plotted against time (hours) by using Prism software.

Experiment [2] deals with T1, SMARCA2. Briefly: Dose response experiment, ATPase assay.
Excerpt: The SMARCA2-1 gene (amino acids 437-1493) encompassing all domains (HAS, BRK, ATPase and Bromodomain) required for DNA binding and ATPase activity were cloned into a pFASTBac1 plasmid for insect cell expression (FIG. 2A). In brief, one positive colony was selected and grown to produce enough bacmid DNA. The purified bacmid DNA was used to transfect expiSF9 insect cells using ExpiFectamine protocol as recommended by the manufacturer (Invitrogen). The P0 virus was first generated from the transfected cells, which was subsequently used to generate a P1 virus stock to have enough virus for several rounds of infections and/or large-scale production of SMARCA2-1 enzyme. […]
as §1
Exemplary compounds were evaluated for their ability to inhibit human SMARCA2 in ATPase assays as detailed in Table 2 below. […]

In experiment [3] the target is T1, SMARCA2. Kind of experiment: Secondary ATPase assay. As to the method:
Exemplary compounds were evaluated for their ability to inhibit human SMARCA2 in ATPase assays as detailed in Table 2 below. Dose response curves for compound nos.

As a reminder, the IC50 is the concentration needed to halve the response being measured. Read a high IC50 as weaker potency.

T1 sequence (P51531 437-1493): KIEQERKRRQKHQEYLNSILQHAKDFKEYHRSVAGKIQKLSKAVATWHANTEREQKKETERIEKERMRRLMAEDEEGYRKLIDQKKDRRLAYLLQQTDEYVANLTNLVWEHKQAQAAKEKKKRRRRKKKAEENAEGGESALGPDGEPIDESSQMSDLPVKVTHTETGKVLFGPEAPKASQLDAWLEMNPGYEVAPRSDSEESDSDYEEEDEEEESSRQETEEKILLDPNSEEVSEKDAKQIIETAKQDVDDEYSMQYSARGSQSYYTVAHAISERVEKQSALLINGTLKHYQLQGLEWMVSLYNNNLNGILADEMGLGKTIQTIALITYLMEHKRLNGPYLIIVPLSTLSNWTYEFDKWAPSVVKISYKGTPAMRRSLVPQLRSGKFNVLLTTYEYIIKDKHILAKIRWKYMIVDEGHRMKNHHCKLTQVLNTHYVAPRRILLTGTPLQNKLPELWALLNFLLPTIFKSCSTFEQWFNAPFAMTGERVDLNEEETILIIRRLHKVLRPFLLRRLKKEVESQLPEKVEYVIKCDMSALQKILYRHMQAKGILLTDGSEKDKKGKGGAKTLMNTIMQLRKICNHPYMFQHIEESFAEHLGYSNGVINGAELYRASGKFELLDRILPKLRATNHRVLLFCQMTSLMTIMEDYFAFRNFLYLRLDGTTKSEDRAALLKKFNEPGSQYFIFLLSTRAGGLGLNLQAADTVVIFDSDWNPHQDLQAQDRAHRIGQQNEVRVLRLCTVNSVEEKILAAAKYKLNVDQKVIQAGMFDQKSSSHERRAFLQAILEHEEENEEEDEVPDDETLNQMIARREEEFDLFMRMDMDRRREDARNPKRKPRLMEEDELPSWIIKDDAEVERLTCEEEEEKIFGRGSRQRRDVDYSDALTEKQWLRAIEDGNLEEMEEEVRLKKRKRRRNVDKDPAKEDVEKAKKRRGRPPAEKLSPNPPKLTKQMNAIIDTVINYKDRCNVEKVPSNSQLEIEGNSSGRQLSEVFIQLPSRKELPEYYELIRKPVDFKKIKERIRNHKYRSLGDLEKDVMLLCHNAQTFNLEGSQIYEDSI

For the compound `COc1cc2nc(NC3CCCC3)nc(NCc3ccc(Cl)c(Cl)c3)c2cc1OC` [Compound 7], the “% ATPase activity in HTS” value in experiment [1] turned out to be 26.9%. Besides, in experiment [2], the midpoint of inhibition, the IC50, lay at 25.3 µM.

Consider `O[C@@H]1CC[C@H](Nc2nc(NCc3ccc(Cl)c(Cl)c3)c3ccccc3n2)C1` [Compound 6], for which the “% ATPase activity in HTS” value in experiment [1] was 97.3%.

Regarding `Clc1ccc(CNc2nc(NC3CCCC3)nc3ccccc23)cc1Cl` [Compound 8], the “% ATPase activity in HTS” value in experiment [1] came to 10.6%. The IC50 was 14.8 µM in experiment [2] and 5 µM in experiment [3].

Values taken from US20250375450A1, “SMARCA2/4 INHIBITION AS A STRATEGY TO TREAT TUMORS THAT HARBOR ABERRANT BAF ASSEMBLIES” (BOARD OF REGENTS, THE UNIVERSITY OF TEXAS SYSTEM, priority 2022, published 2025).
